Measurements as given in PubChem BioAssay AID743117 (The Scripps Research Institute Molecular Screening Center, 2013).
Active and inactive are the calls of the source.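 The calls were made as follows: active = 50% or more inhibition of both lipases LYPLA1 and LYPLA2, with off-target enzymes other than ABHD6 below 50%; inactive = below 50% on either lipase, or hitting an off-target enzyme.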

Experiments:
Assay in all cases: competitive ABPP potency and off-target profiling of APT1/APT2 inhibitors – cell lysate, mouse brain membrane proteome, FP-Rh fluorescence, powders, selectivity assay for LYPLA1/LYPLA2 inhibitor project, late-stage follow-up (AID 743117)
ABHD4 Selectivity = ABHD4 Selectivity (UniProt Q8VD66); conditions: gel-based ABPP FP-Rh fluorescence, measured here: ABHD4 Selectivity, anti-target concentration >50% inhibition, stronger effect = lower value
Sequence of ABHD4 Selectivity (Q8VD66 whole entry, looked up): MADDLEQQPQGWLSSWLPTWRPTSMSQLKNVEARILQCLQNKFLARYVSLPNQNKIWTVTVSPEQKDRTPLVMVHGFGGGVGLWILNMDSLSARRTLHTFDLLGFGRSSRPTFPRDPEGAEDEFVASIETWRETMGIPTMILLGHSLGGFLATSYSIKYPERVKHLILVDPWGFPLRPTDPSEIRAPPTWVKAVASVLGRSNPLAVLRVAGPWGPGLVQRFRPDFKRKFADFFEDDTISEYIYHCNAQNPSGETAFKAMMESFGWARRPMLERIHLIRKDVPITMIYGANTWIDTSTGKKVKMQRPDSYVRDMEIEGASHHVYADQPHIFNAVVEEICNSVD

MAGL Selectivity = conditions: gel-based ABPP FP-Rh fluorescence, measured here: MAGL Selectivity, anti-target concentration >50% inhibition, stronger effect = lower value
LYPLA1 = conditions: gel-based ABPP FP-Rh fluorescence, at 100 µM (top of the series)
FAAH Selectivity = conditions: gel-based ABPP FP-Rh fluorescence, measured here: FAAH Selectivity, anti-target concentration >50% inhibition, stronger effect = lower value
LYPLA2 = conditions: gel-based ABPP FP-Rh fluorescence, at 100 µM (top of the series)
[1] = molecular target: Monoacylglycerol lipase ABHD6 (Mus musculus) (UniProt Q8R2Y0); conditions: gel-based ABPP FP-Rh fluorescence, measured here: ABHD6 Selectivity, anti-target concentration >50% inhibition, stronger effect = lower value
Sequence of Monoacylglycerol lipase ABHD6 (Mus musculus) (Q8R2Y0 whole entry, looked up): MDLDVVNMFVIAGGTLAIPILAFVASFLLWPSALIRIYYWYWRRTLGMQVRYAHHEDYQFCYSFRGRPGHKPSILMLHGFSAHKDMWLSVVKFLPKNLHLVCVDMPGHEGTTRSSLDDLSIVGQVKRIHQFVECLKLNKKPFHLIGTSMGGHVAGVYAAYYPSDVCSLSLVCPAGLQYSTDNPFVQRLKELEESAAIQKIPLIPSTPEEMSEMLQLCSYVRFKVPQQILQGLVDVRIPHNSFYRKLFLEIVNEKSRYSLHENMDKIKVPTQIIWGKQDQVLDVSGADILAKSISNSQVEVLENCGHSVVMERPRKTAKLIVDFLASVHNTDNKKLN

ABHD12 Selectivity = conditions: gel-based ABPP FP-Rh fluorescence, measured here: ABHD12 Selectivity, anti-target concentration >50% inhibition, stronger effect = lower value
APEH Selectivity = conditions: gel-based ABPP FP-Rh fluorescence, measured here: APEH Selectivity, anti-target concentration >50% inhibition, stronger effect = lower value

| Structure (SMILES) | concentration for >50% inhibition (ABHD4 Selectivity) [µM] | concentration for >50% inhibition (MAGL Selectivity) [µM] | inhibition (LYPLA1) | concentration for >50% inhibition (FAAH Selectivity) [µM] | inhibition (LYPLA2) | concentration for >50% inhibition [1] [µM] | concentration for >50% inhibition (ABHD12 Selectivity) [µM] | concentration for >50% inhibition (APEH Selectivity) [µM] |
| --- | --- | --- | --- | --- | --- | --- | --- | --- |
| O=C(ON1C(=O)C2CN(C(=O)c3ccc(F)c([N+](=O)[O-])c3)CCN2C1=O)N1CCC(CCc2ccc(Cl)cc2)CC1 (stereo not given) |  | 100 | 100% | 10 | 100% | 0.1 | 10 |  |
| CC(C)(C)OC(=O)N1CCN2C(=O)N(OC(=O)N3CCN(C(c4ccc(Cl)cc4)c4ccc(Cl)cc4)CC3)C(=O)C2C1 (stereo not given) |  |  | 60% (inactive) |  | 60% (inactive) | 0.1 |  |  |
| O=C(ON1C(=O)C2CN(C(=O)N3CCCCC3)CCN2C1=O)N1CCC(CCc2ccc(Cl)cc2)CC1 (stereo not given) | 10 | 10 | 100% | 1 | 100% | 0.1 | 10 |  |
| O=C(ON1C(=O)C2CN(C(=O)N3CCOCC3)CCN2C1=O)N1CCC(CCc2ccc(Cl)cc2)CC1 (stereo not given) |  | 100 | 100% | 10 | 100% | 0.1 | 100 |  |
| CCN(C(=O)C1CCN(C(=O)ON2C(=O)C3CN(C(=O)OC(C)(C)C)CCN3C2=O)CC1)c1ccccc1 (stereo not given) |  |  | 100% (inactive) |  | 100% (inactive) | 0.1 |  |  |
| CC(C)(C)OC(=O)N1CCN2C(=O)N(OC(=O)N3CCCCC3)C(=O)C2C1 (stereo not given) |  |  | 25% (inactive) |  | 25% (inactive) | 0.1 |  | 100 |
| CC(C)(C)OC(=O)N1CCN2C(=O)N(OC(=O)N3CCC(C(=O)Nc4ccccc4)CC3)C(=O)C2C1 (stereo not given) |  |  | 50% (inactive) | 100 | 25% (inactive) | 0.1 |  |  |
| CC(C)(C)OC(=O)N1CCN2C(=O)N(OC(=O)N3CCN(CCc4ccccc4)CC3)C(=O)C2C1 (stereo not given) |  |  | 90% (inactive) | 100 | 75% (inactive) | 0.1 | 100 |  |
| CC(C)(C)OC(=O)N1CCN2C(=O)N(OC(=O)N3CCOCC3Cc3ccccc3)C(=O)C2C1 (stereo not given) |  |  | 0% (inactive) |  | 0% (inactive) | 0.1 |  |  |
| O=C(ON1C(=O)C2CN(C(=O)N3CCCC3)CCN2C1=O)N1CCC(CCc2ccc(Cl)cc2)CC1 (stereo not given) | 100 | 100 | 100% | 1 | 100% | 0.1 | 100 |  |
| COC(=O)C1CCN(C(=O)ON2C(=O)C3CN(C(=O)OC(C)(C)C)CCN3C2=O)CC1 (stereo not given) |  |  | 25% (inactive) |  | 25% (inactive) | 0.1 |  |  |

Continued, values first:

| concentration for >50% inhibition (ABHD4 Selectivity) [µM] | concentration for >50% inhibition (MAGL Selectivity) [µM] | inhibition (LYPLA1) | concentration for >50% inhibition (FAAH Selectivity) [µM] | inhibition (LYPLA2) | concentration for >50% inhibition [1] [µM] | concentration for >50% inhibition (ABHD12 Selectivity) [µM] | concentration for >50% inhibition (APEH Selectivity) [µM] | Structure (SMILES) |
| --- | --- | --- | --- | --- | --- | --- | --- | --- |
| 1 | 100 | 90% (inactive) | 1 | 90% (inactive) | 0.1 |  |  | O=C(ON1C(=O)C2CN(Cc3ccc(Br)cc3)CCN2C1=O)N1CCC(CCc2ccc(Cl)cc2)CC1 (stereo not given) |
|  | 100 | 100% | 1 | 100% | 0.1 | 10 |  | CC(C)(C)OC(=O)N1CCN2C(=O)N(OC(=O)N3CCC(CCc4ccc(Cl)cc4)CC3)C(=O)C2C1 (stereo not given) |
| 100 | 100 | 100% | 10 | 100% | 0.1 | 10 |  | O=C(ON1C(=O)C2CN(C(=O)c3ccc(Br)cc3)CCN2C1=O)N1CCC(CCc2ccc(Cl)cc2)CC1 (stereo not given) |
|  | 100 | 100% | 10 | 100% | 0.1 | 10 |  | Cc1ccc(C(=O)N2CCN3C(=O)N(OC(=O)N4CCC(CCc5ccc(Cl)cc5)CC4)C(=O)C3C2)cc1 (stereo not given) |
| 10 | 10 | 100% (inactive) | 10 | 100% (inactive) | 0.1 |  |  | O=C(ON1C(=O)C2CN(CCc3ccccc3)CCN2C1=O)N1CCC(CCc2ccc(Cl)cc2)CC1 (stereo not given) |
| 100 | 10 | 100% | 1 | 100% | 0.1 | 10 |  | CC(C)(C)CC(=O)N1CCN2C(=O)N(OC(=O)N3CCC(CCc4ccc(Cl)cc4)CC3)C(=O)C2C1 (stereo not given) |
|  | 10 | 100% | 10 | 100% | 0.1 | 10 |  | COc1ccc(C(=O)N2CCN3C(=O)N(OC(=O)N4CCC(CCc5ccc(Cl)cc5)CC4)C(=O)C3C2)cc1 (stereo not given) |
|  |  | 100% | 10 | 100% | 0.1 | 10 |  | CN(C)c1ccc(C(=O)N2CCN3C(=O)N(OC(=O)N4CCC(CCc5ccc(Cl)cc5)CC4)C(=O)C3C2)cc1 (stereo not given) |
|  | 10 | 100% | 1 | 100% | 0.1 |  |  | O=C(Cc1ccccc1)N1CCN2C(=O)N(OC(=O)N3CCC(CCc4ccc(Cl)cc4)CC3)C(=O)C2C1 (stereo not given) |
